Values after ≈ are worked out from the molar mass of the structure shown. Square brackets hold non-standard residues; d marks the D form. Peptide text beside a SMILES is read from it. 1Nal = N[C@@H](Cc1cccc2ccccc12)C(=O)O
Legend:
[1] = tested on: rough mutant E. coli J5 bacteria; assay: Radial diffusion bactericidal assay, E. coli J5; format: cell-based; conditions: radial diffusion; PROBIT analysis; E. coli J5 (rough)
Procedure: BPI proteolytic fragments produced according to Example 1 were screened for bactericidal effects using rough mutant E. coli J5 bacteria in a radial diffusion assay. Specifically, an overnight culture of E. coli J5 was diluted 1:50 into fresh tryptic soy broth and incubated for 3 hours at 37° C. to attain log phase growth of the culture. Bacteria were then pelleted at 3,000 rpm for 5 minutes in a Sorvall RT6000B centrifuge (Sorvall Instruments, Newton, Conn.). 5 mL of 10 mM sodium phosphate buffer (pH 7.4) was added and the preparation was re-pelleted. […] The bacteria were diluted to 4×10^6 CFU/mL in 10 mL of molten underlayer agarose (at approximately 45° C.) and inverted repeatedly to mix in 15 mL polypropylene tubes conventionally used for this purpose.
The entire contents of such tubes were then poured into a level square petri dish and distributed evenly by rocking the dish side-to-side. […] A series of wells were then punched into the hardened agarose using a sterile 3 mm punch attached to a vacuum apparatus. The punch was sterilized with 100% alcohol and allowed to air dry prior to use to avoid contaminating the bacterial culture.
5 or 10 μL of each of the BPI fragments were carefully pipetted into each well. As a negative control, dilution buffer (pH 8.3) was added to a separate well, and rBPI23 at concentrations of 5 μg/mL and 1 μg/mL were also added as positive controls. Each plate was incubated at 37° C. for 3 hours, and then 10 mL of molten overlayer agarose (at approximately 45° C.) was added into the level petri dish, allowed to harden and incubated overnight at 37° C. […] The bacterial zones were measured with a micrometer.

[2] = tested on: E. coli 0111:B4 (smooth) bacteria; assay: Radial diffusion bactericidal assay, E. coli 0111:B4; format: cell-based; conditions: radial diffusion; PROBIT analysis; E. coli O111:B4 (smooth)
Staphylococcus aureus = assay: Radial diffusion bactericidal assay, Staphylococcus aureus; format: cell-based; conditions: radial diffusion; PROBIT analysis; S. aureus
Candida albicans = format: cell-based
[3] = 3H-heparin binding assay (affinity and capacity); conditions: for Heparin Capacity: heparin bound at saturation; for Kd: read-out: Heparin Affinity
Procedure: Briefly, each fragment was added to wells of a 96-well microtiter plate having a polyvinylidene difluoride membrane (Immunobilon-P, Millipore, Bedford, Mass.) disposed at the bottom of the wells. […] Positive control wells contained varying amounts of rBPI23. […] DuPont-NEN, Wilmington, Del.) were made in the blocking buffer and incubated in the BPI peptide-containing wells for one hour at 4° C. The unbound heparin was aspirated and the wells were washed three times with blocking buffer, dried and removed for quantitation in a liquid scintillation counter (Model 1217, LKB, Gaithersburg, Md.). Although BSA in the blocking buffer did show a low affinity and capacity to bind heparin, this was considered physiologically irrelevant and the background was routinely subtracted from the test compound signal.

Compound | pmol added to well to achieve a 30 mm^2 bactericidal zone, E. coli J5 [1] | pmol added to well to achieve a 30 mm^2 bactericidal zone, E. coli O111:B4 [2] | pmol added to well to achieve a 30 mm^2 bactericidal zone, S. aureus (Staphylococcus aureus) | MIC C. alb (Candida albicans) [µg/mL] | Heparin Capacity [3] | Kd [3] [nM] | Heparin Affinity [3]
CC[C@H](C)[C@H](NC(=O)[C@H](CC(C)C)NC(=O)[C@H](Cc1c[nH]c2ccccc12)NC(=O)CNC(=O)[C@@H](NC(=O)[C@H](CCCCN)NC(=O)[C@H](CO)NC(=O)[C@@H](N)CCCCN)C(C)C)C(=O)N[C@@H](CCC(N)=O)C(=O)N[C@@H](CC(C)C)C(=O)N[C@@H](Cc1ccccc1)C(=O)N[C@@H](Cc1cccc2ccccc12)C(=O)N[C@@H](CCCCN)C(=O)N[C@@H](Cc1cccc2ccccc12)C(=O)O [BPI.146] (H-KSKVGWLIQLF[1Nal]K[1Nal]-OH; N-terminus and C-terminus assumed) | b (no detectable activity up to 5 μg/well) | b (no detectable activity up to 5 μg/well) | b (no detectable activity up to 5 μg/well) | >50.00 |  |  | 
CC[C@H](C)[C@H](NC(=O)[C@H](CC(C)C)NC(=O)[C@H](Cc1cccc2ccccc12)NC(=O)CNC(=O)[C@@H](NC(=O)[C@H](CCCCN)NC(=O)[C@H](CO)NC(=O)[C@@H](N)CCCCN)C(C)C)C(=O)N[C@@H](CCC(N)=O)C(=O)N[C@@H](CC(C)C)C(=O)N[C@@H](Cc1ccccc1)C(=O)N[C@@H](Cc1cccc2ccccc12)C(=O)N[C@@H](CCCCN)C(=O)N[C@@H](CCCCN)C(=O)O [BPI.148, KSKVGAβ-(1-naphthyl)LIQLFAβ-(1-naphthyl)KK] (H-KSKVG[1Nal]LIQLF[1Nal]KK-OH; N-terminus and C-terminus assumed) | 4,206.57 pmol | b (no detectable activity up to 5 μg/well) | b (no detectable activity up to 5 μg/well) | 50.00 (≈ 28 µM) |  |  | 
CC(C)C[C@H](NC(=O)[C@H](Cc1ccccc1)NC(=O)[C@H](CCCNC(=N)N)NC(=O)[C@H](CCCCN)NC(=O)[C@H](CCC(N)=O)NC(=O)[C@H](C)NC(=O)[C@H](CCCCN)NC(=O)[C@H](Cc1c[nH]c2ccccc12)NC(=O)[C@H](CCCCN)NC(=O)[C@H](CCCCN)NC(=O)[C@H](CC(C)C)NC(=O)[C@H](Cc1ccccc1)NC(=O)[C@H](CCCNC(=N)N)NC(=O)[C@H](Cc1cccc2ccccc12)NC(=O)[C@H](Cc1cccc2ccccc12)NC(=O)[C@H](C)NC(=O)[C@H](CCCCN)NC(=O)[C@H](Cc1c[nH]c2ccccc12)NC(=O)[C@@H](N)CCCCN)C(=O)N[C@@H](CCCCN)C(=O)O [BPI.154] (H-KWKA[1Nal][1Nal]RFLKKWKAQKRFLK-OH; N-terminus and C-terminus assumed) | 197.00 pmol | 2,977.76 pmol | 30,052,224.71 pmol | >100.00 |  |  | 
CC(C)C[C@H](NC(=O)[C@H](Cc1ccccc1)NC(=O)[C@H](CCCNC(=N)N)NC(=O)[C@H](Cc1cccc2ccccc12)NC(=O)[C@H](Cc1cccc2ccccc12)NC(=O)[C@H](C)NC(=O)[C@H](CCCCN)NC(=O)[C@H](Cc1c[nH]c2ccccc12)NC(=O)[C@H](CCCCN)NC(=O)[C@H](CCCCN)NC(=O)[C@H](CC(C)C)NC(=O)[C@H](Cc1ccccc1)NC(=O)[C@H](CCCNC(=N)N)NC(=O)[C@H](Cc1cccc2ccccc12)NC(=O)[C@H](Cc1cccc2ccccc12)NC(=O)[C@H](C)NC(=O)[C@H](CCCCN)NC(=O)[C@H](Cc1c[nH]c2ccccc12)NC(=O)[C@@H](N)CCCCN)C(=O)N[C@@H](CCCCN)C(=O)O [BPI.156] (H-KWKA[1Nal][1Nal]RFLKKWKA[1Nal][1Nal]RFLK-OH; N-terminus and C-terminus assumed) |  |  |  | >100.00 |  |  | 
CC[C@H](C)[C@H](N)C(=O)N[C@@H](CCCCN)C(=O)N[C@H](C(=O)N[C@@H](CO)C(=O)NCC(=O)N[C@@H](CCCCN)C(=O)N[C@@H](Cc1c[nH]c2ccccc12)C(=O)N[C@@H](CCCCN)C(=O)N[C@@H](C)C(=O)N[C@@H](Cc1cccc2ccccc12)C(=O)N[C@@H](Cc1cccc2ccccc12)C(=O)N[C@@H](CCCNC(=N)N)C(=O)N[C@@H](Cc1ccccc1)C(=O)N[C@@H](CC(C)C)C(=O)N[C@@H](CCCCN)C(=O)N[C@@H](CCCCN)C(=O)N[C@@H](CO)C(=O)N[C@@H](CCCCN)C(=O)N[C@H](C(=O)NCC(=O)N[C@@H](Cc1c[nH]c2ccccc12)C(=O)N[C@@H](CC(C)C)C(=O)N[C@H](C(=O)N[C@@H](CCC(N)=O)C(=O)N[C@@H](CC(C)C)C(=O)N[C@@H](Cc1ccccc1)C(=O)N[C@@H](Cc1c[nH]cn1)C(=O)N[C@@H](CCCCN)C(=O)N[C@@H](CCCCN)C(=O)O)[C@@H](C)CC)C(C)C)[C@@H](C)CC [BPI.158] (H-IKISGKWKA[1Nal][1Nal]RFLKKSKVGWLIQLFHKK-OH; N-terminus and C-terminus assumed) |  |  |  | >100.00 |  |  | 
IKISGKFKAQKRFLK [BPI.61] | 86,541.00 pmol | b (no detectable activity up to 5 μg/well) | b (no detectable activity up to 5 μg/well) |  | 85.2 ng | 58.3 | 
IKISGKWDKAQKRFLK [BPI.66] | 5,846.50 pmol | b (no detectable activity up to 5 μg/well) | b (no detectable activity up to 5 μg/well) |  | 111.6 ng | 296 | 
IKISGKWKAKKRFLK [BPI.79] | 5,827.30 pmol | b (no detectable activity up to 5 μg/well) | b (no detectable activity up to 5 μg/well) |  | 110.2 ng | 199 | 
IKISGKWKAKQRFLK [BPI.56] | 1,387.00 pmol | b (no detectable activity up to 5 μg/well) | b (no detectable activity up to 5 μg/well) |  | 135.5 ng | 115 | 
IKISGKWKAQKRAβ-(3-pyridyl)LK [BPI.72] | 2,925.67 pmol | b (no detectable activity up to 5 μg/well) | b (no detectable activity up to 5 μg/well) |  | 102.8 ng | 145 | 
IKKRAISFLGKKWQK [BPI.75] | 2,708.40 pmol | b (no detectable activity up to 5 μg/well) | 9,508.60 pmol |  | 119.8 ng | 96 | 
KSKVKWLIKLFFKFKSKVKWLIKLFFKF [BPI.101] | 1,329.30 pmol | 3,631.70 pmol | 4,388.20 pmol |  | 210.9 ng | 1900 | 
KSKVKWLIKLFHKK [BPI.100] | 407.74 pmol | 7,342.90 pmol | b (no detectable activity up to 5 μg/well) |  | 314.0 ng | 2930 | 
KWKAQWRFLKKWKAQWRFLKKWKAQWRFLK [BPI.99] | 722.90 pmol | 60,037.52 pmol | 37,942,676.00 pmol |  | 971.4 ng | 9100 | 
QQGTAALQKELKRIK [BPI.1] | b (no detectable activity up to 5 μg/well) | b (no detectable activity up to 5 μg/well) | b (no detectable activity up to 5 μg/well) |  | no binding |  | no binding

— patent US20040023884A1, “Biologically active peptides from functional domains of bactericidal/permeability-increasing protein and uses thereof” (priority 1993, published 2004)
